US20080021069A1, “Receptor Function Regulating Agent” (TAKEDA PHARMACEUTICAL COMPANY LIMITED, priority 2004, published 2008)

How the values were obtained:
[1] = molecular target: T1, human GPR40 (Homo sapiens, UniProt O14842); assay: GPR40 antagonist activity with changes in intracellular calcium concentration as index (NFAT-luciferase reporter, CHO(dhfr-)/GPR40-NFAT-Luc cells); type: cell-based; conditions: CHO cell line expressing human GPR40, NFAT-Luc reporter; GPR40 agonist 3-(4-((6-benzyloxy-2',6'-dimethyl-biphenyl-3-yl)methoxy)phenyl)propanoic acid 40 nM; 4 hr culture; 0.1% fatty acid-free BSA
T1 construct: expressed in transfected cells; host or cells: CHO(dhfr-) cells: line CHO-hGPR40 No. 104 of WO2004/041266, with a stably expressed NFAT-TA-Luc reporter (CHO(dhfr-)/GPR40-NFAT-Luc)
T1 sequence (O14842 whole entry): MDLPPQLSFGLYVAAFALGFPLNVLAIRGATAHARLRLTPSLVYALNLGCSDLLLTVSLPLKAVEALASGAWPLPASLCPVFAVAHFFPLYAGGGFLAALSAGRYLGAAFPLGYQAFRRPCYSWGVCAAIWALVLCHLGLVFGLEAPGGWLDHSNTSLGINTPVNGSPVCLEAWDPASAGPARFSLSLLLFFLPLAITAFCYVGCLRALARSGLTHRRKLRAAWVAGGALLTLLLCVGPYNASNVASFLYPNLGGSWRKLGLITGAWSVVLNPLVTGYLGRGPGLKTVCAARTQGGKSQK
Description: Evaluation of GPR40 antagonist activity with changes in intracellular calcium concentration as index
An assay system of GPR40 antagonist was established as follows. In this assay system, as the GPR40 agonist, 3-(4-((6-benzyloxy-2′,6′-dimethyl-biphenyl-3-yl)methoxy)phenyl)propanoic acid (compound described in Example 340 of WO2004/041266) was used.
First, NFAT-TA was cut out from pNFAT-TA-Luc (manufactured by BD Bioscience Clontech) with HindIII and NheI, the recovered fragment was inserted into pGL3 basic neo digested with HindIII and NheI to give plasmid:pGL3 basic neo NFAT-TA-Luc.
This plasmid was used for “the CHO cell line (CHO-hGPR40 No. 104), which was made to express human GPR40” described in WO2004/041266, and a cell line CHO(dhfr-)/GPR40-NFAT-Luc, wherein a reporter gene was stably expressed by a method known per se, was prepared.
This cell line was diluted with a medium (nucleic acid-free MEM (Minimum Essential Medium)—α medium added with dialyzed FBS (Fetal Bovine Serum) to a final concentration of 10%) in such a manner that 2×10^4 cells/100 μl would be contained, dispensed to a white walled 96 well plate (manufactured by Coster) by 100 μl per well, and cultured overnight in a CO2 incubator. Then the medium was removed by suction from the 96 well plate, and a 10 mM test compound-dimethyl sulfoxide (manufactured by Wako Pure Chemical Industries, Ltd.) solution diluted with a medium (nucleic acid-free MEM—α medium added with bovine serum albumin (BSA) free of fatty acid to a final concentration of 0.1%) to each concentration was added by 50 μl per well. Further, 3-(4-((6-benzyloxy-2′,6′-dimethyl-biphenyl-3-yl)methoxy)phenyl)propanoic acid diluted with a medium (nucleic acid-free MEM-α (medium added with BSA free of fatty acid to a final concentration of 0.1%) to a final concentration of 40 nM was added to the 96 well plate by 50 μl per well.
After culture in a CO2 incubator for 4 hr, the culture medium was removed from the 96 well plate. Then, PicaGene (manufactured by TOYO INK MFG. CO., LTD.) was added to the 96 well plate, and the luciferase activity was determined using PerkinElmer ARVO (trade name, manufactured by PerkinElmer), based on which changes in the intracellular calcium concentration were evaluated. After assay of luciferase activity, nonlinear regression analysis was performed using PRISM 3 (trade name, manufactured by GraphPad) and IC50 value was calculated with changes in the intracellular calcium concentration as an index.
In the same manner as in Experimental Example 1, the IC50 value of the compound of the present invention was calculated.

[2] = test system: rat pancreatic islet; assay: Insulin secretion suppressive activity using rat pancreatic islet (palmitic acid stimulation); type: cell-based; conditions: glucose 16 mM, compound 10 μM, 30 min, mean ± SD (n = 4)
Description: The effect of the compound of the present invention on the insulin secretion from the rat pancreatic islet, which is induced by palmitic acid stimulation, was evaluated.
Male SD rats (7-week-old, Clea Japan, Inc.) were anesthetized with Nembutal (50 mg/kg, i.p.) and subjected to laparotomy. While confirming and following the course of the common bile duct to the peripheral thereof, and the duct was ligated at the liver side immediately from the opening of the duodenum. Then, the common bile duct was detached from the surrounding tissue on the duodenum side from the hepatic duct bifurcation and a thread was placed thereon. An indwelling needle (22G, manufactured by TERUMO CORPORATION) was inserted into the common bile duct at a position on the liver side from this part and fixed by ligation with the thread placed earlier thereon. 10 ml of 150 mg/ml collagenase (manufactured by Wako Pure Chemical Industries, Ltd., for cell dispersion)-Hank's Balanced Salt Solution (HBSS, manufactured by Invitrogen)-1% Bovine Serum Albumin (BSA, manufactured by Wako Pure Chemical Industries, Ltd.) −0.01 mg/ml DnaseI (manufactured by Roche Molecular Biochemicals)-2.5% N-2-Hydroxyethylpiperazine-N′-2-Ethane Sulfonic Acid (HEPES, manufactured by Invitrogen) was injected from the common bile duct. […]

SMILES | IC50 [1] [nM] | insulin secretion amount ([2]; palmitic acid 0 mM) [pg/ng DNA] | insulin secretion amount ([2]; palmitic acid 1 mM) [pg/ng DNA] | melting point [°C]
CCOc1ccc(-n2c(SCc3ccc(Cl)cc3)nc3ccc(Cl)cc32)cc1 [Example 10, 6-chloro-2-[(4-chlorobenzyl)thio]-1-(4-ethoxyphenyl)-1H-benzimidazole] | < 100 | 353 ± 122 | 369 ± 141 | 129 to 130
CC(C)Oc1ccc(-n2c(SCc3ccc(Cl)cc3)nc3cc(Cl)c(Cl)cc32)cc1 [Example 110, 5,6-Dichloro-2-[(4-chlorobenzyl)thio]-1-(4-isopropoxyphenyl)-1H-benzimidazole] | < 100 | – | – | 149 to 150
CCCOc1ccc(-n2c(NCc3ccc(Cl)cc3)nc3cc(Cl)c(Cl)cc32)cc1 [Example 98, 5,6-Dichloro-N-(4-chlorobenzyl)-1-(4-propoxyphenyl)-1H-benzimidazol-2-amine] | < 100 | – | – | 166 to 167
CCOc1ccc(-n2c(SCc3ccc(C(F)(F)F)nc3)nc3ccc(Cl)cc32)cc1 [Example 36, 6-chloro-1-(4-ethoxyphenyl)-2-({[6-(trifluoromethyl)pyridin-3-yl]methyl}thio)-1H-benzimidazole] | < 100 | – | – | 104 to 105
FC(F)(F)COc1ccc(-n2c(NCc3ccc(Br)cc3)nc3cc(Cl)c(Cl)cc32)cc1 [Example 103, N-(4-Bromobenzyl)-5,6-dichloro-1-[4-(2,2,2-trifluoroethoxy)phenyl]-1H-benzimidazol-2-amine] | < 100 | – | – | 118 to 120
CC(C)(C)c1ccc(CNc2nc3cc(Cl)c(Cl)cc3n2-c2ccc(OC(F)(F)F)cc2)cc1 [Example 105, N-(4-tert-butylbenzyl)-5,6-dichloro-1-[4-(trifluoromethoxy)phenyl]-1H-benzimidazol-2-amine] | < 100 | – | – | 158 to 159
CCCOc1ccc(-n2c(SCc3ccc(Cl)cc3)nc3ccc(Cl)cc32)cc1 [Example 12, 6-Chloro-2-[(4-chlorobenzyl)thio]-1-(4-propoxyphenyl)-1H-benzimidazole] | < 100 | – | – | 102 to 103
CCCCOc1ccc(-n2c(NCc3ccc(C(C)(C)C)cc3)nc3cc(Cl)ccc32)cc1 [Example 86, 1-(4-Butoxyphenyl)-N-(4-tert-butylbenzyl)-5-chloro-1H-benzimidazol-2-amine] | < 100 | – | – | 158 to 159
CC(C)(C)c1ccc(CNc2nc3ccc(Cl)cc3n2-c2ccc(OCC(F)(F)F)cc2)cc1 [Example 78, N-(4-tert-Butylbenzyl)-6-chloro-1-[4-(2,2,2-trifluoroethoxy)phenyl]-1H-benzimidazol-2-amine] | < 100 | – | – | 151 to 152
CCCCOc1ccc(-n2c(SCc3ccc(Cl)cc3)nc3cc(Cl)ccc32)cc1.Cl [Example 122, 1-(4-Butoxyphenyl)-5-chloro-2-[(4-chlorobenzyl)thio]-1H-benzimidazole hydrochloride] | < 100 | – | – | 83 to 89
CCCOc1ccc(-n2c(NCc3ccc(C(C)(C)C)cc3)nc3cc(Cl)ccc32)cc1 [Example 83, N-(4-tert-Butylbenzyl)-5-chloro-1-(4-propoxyphenyl)-1H-benzimidazol-2-amine] | < 100 | – | – | 190 to 191
CCOc1ccc(-n2c(SCc3ccc(Cl)cc3)nc3cc(Cl)c(Cl)cc32)cc1 [Example 111, 5,6-Dichloro-2-[(4-chlorobenzyl)thio]-1-(4-ethoxyphenyl)-1H-benzimidazole] | < 100 | – | – | 131 to 132
CCCOc1ccc(-n2c(SCc3ccc(Cl)cc3)nc3cc(Cl)ccc32)cc1.Cl [Example 121, 5-Chloro-2-[(4-chlorobenzyl)thio]-1-(4-propoxyphenyl)-1H-benzimidazole hydrochloride] | < 100 | – | – | 104 to 112
COCOc1ccc(-n2c(SCc3ccc(Br)cc3)nc3ccc(Cl)cc32)cc1 [Example 8, 2-[(4-Bromobenzyl)thio]-6-chloro-1-[4-(methoxymethoxy)phenyl]-1H-benzimidazole] | < 100 | – | – | 123 to 124
